Results taken from patent publication EP0974353A2, “The use of homocysteine derivatives for the preparation of medicaments inhibiting bacterial adhesiveness” (EDMOND PHARMA S.R.L., priority 1998, dated 2000).
Entries after “also recorded” stand apart in the source; their conditions may differ.

Key:
[1] = tested on: E. coli strains, ATCC 25922 strain and two others isolated from human urinary infections; assay: Inhibition of bacterial adhesiveness to human buccal/palatal epithelial cells, E. coli; type: cell-based; conditions: three E. coli strains; for inhibitory activity on adhesiveness: even at the maximum tested concentration (10 mcg/ml)
Procedure: (§1) Said procedures consist in incubating the active substance with bacteria in order to interfere with their adhesiveness mechanism and subsequently adding mucosa cells, observing the obtained result.
(§2) Human epithelial cells were collected from buccal and palatal mucosa of healthy volunteers by a sterile spatula, subsequently immersed in 2 ml of physiological saline buffered with phosphate buffer, combining then the suspensions from different volunteers.
(§3) Tests were carried out with three different E. coli strains, ATCC 25922 strain and two others isolated from human urinary infections, as well as with three S. aureus strains, ATCC 25923 strain and two others from human respiratory infections, using concentrations of 1.25, 2.5, 5 and 10 mcg/ ml for each tested compound.

[2] = tested on: S. aureus strains, ATCC 25923 strain and two others from human respiratory infections; assay: Inhibition of bacterial adhesiveness to human buccal/palatal epithelial cells, S. aureus; type: cell-based
Procedure: as §1, §2, §3

bacterial adhesiveness = assay: Inhibition of bacterial adhesiveness, bacterium not specified; type: cell-based; conditions: bacterium and concentration not given; general statement
Procedure: as §1, §2, §3

[3] = rank among the erdosteine metabolites; from R. Scuri et al.; cited from earlier work

SMILES	inhibitory activity on adhesiveness [1]	inhibition of bacterial adhesiveness (bacterial adhesiveness)	further results
CC(=O)N[C@@H](CS)C(=O)O [N-acetylcysteine]	no inhibitory activity	much less active, or even inactive	activity in reducing bacterial adhesiveness ([2]; incubation with S. aureus, concentration not stated (tested 1.25, 2.5, 5 and 10 mcg/ml)): no specific activity
CC(=O)N[C@@H](CCS)C(=O)O [N-acetylhomocysteine]	no inhibitory activity	–	–
O=C(O)CSCC(=O)NC(CCS)C(=O)O (stereo not shown) [compound (A), N-(Thiodiglycoyl)homocysteine]	–	remarkable inhibitory activity	inhibitory activity of bacterial adhesiveness ([1]; already at a concentration of 2.5 mcg/ml, compared with the control (bacteria with no tested compound)): significant inhibitory activity; reduction of S. aureus adhesiveness to epithelial cells ([2]; at concentrations of 2.5 to 10 mcg/ml): significant reduction; mucolytic activity [3]: lowest mucolytic activity
O=C(O)CSCC(=O)NC1CCSC1=O (stereo not shown) [erdosteine, N-(thiodiglycoyl)homocysteine gamma-thiolactone]	–	not inhibited in a statistically significant way; also recorded: almost devoid of such an activity	–
N[C@@H](CCS)C(=O)O [homocysteine]	–	–	inhibitory activity on adhesiveness, difference compared with the control test ([1]; concentration not stated (tested 1.25, 2.5, 5 and 10 mcg/ml)): some difference, which however was not statistically significant
